Measured values as given in PubChem BioAssay AID1053191 (Broad Institute, 2014).
Inconclusive results are not listed. Active and inactive are the calls of the source.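 The calls were made as follows: active = compounds whose fitted half-maximal potency for killing cells lies within twice their highest tested dose; inconclusive = flat curve with 30 to 70% signal loss, or poor fit; inactive = the rest.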

Test system: not listed separately
Assay: cytotoxicity in HEK293 cells, dose response, cytotoxicity control, cell-based, dry powder samples (AID 1053191)
Conditions: HEK293T viability, ATP luminescence, 72 h; at 50 µM (top of the series)

Row | SMILES | activity change, negative = cytotoxic
1 | COc1ccc(Nc2ccccc2N)cc1 | -11.7% (inactive)
2 | Cc1cccc(NC(=O)NCc2ccc3c(c2)cc(C)n3C)c1 | -22.6% (inactive)
3 | CCc1cccc2c1NC1(CCCC1)CC2C (centres undefined) | -4.91% (inactive)
4 | CNc1ccccc1C(C)(C)c1cc(-c2cccc(OC)c2)no1 | -41.9% (inactive)
5 | Cc1cc2cc(CNC(=O)Nc3ccc(Cl)c(Cl)c3)ccc2n1C | -15.7% (inactive)
6 | Cc1cc(C)c(S(=O)(=O)NCCn2c(C)cc3ccccc32)c(C)c1 | -16.1% (inactive)
7 | Cc1cc2ccccc2n1CCNC(=O)COc1ccc2ccccc2c1 | -12.6% (inactive)
8 | COc1cc(CC2C(=O)Nc3ccccc32)cc(C)c1O (centres undefined) | -16.6% (inactive)
9 | Cc1ccc(CSc2nc3[nH]ncc3c(=O)[nH]2)cc1 | -29.4% (inactive)
10 | O=C(O)C1CCN(c2nc(-c3ccccc3)c3cc(Br)ccc3n2)CC1 | 13.4% (inactive)
11 | CCc1ccc(-n2c(=S)sc3c(=O)n(-c4ccccc4C)c(SCC(=O)O)nc32)cc1 | 12.6% (inactive)
12 | OCc1ccc(-c2nn(Cc3ccccc3)c3ccccc23)o1 | 4.83% (inactive)
13 | Cc1ccc(S(=O)(=O)NCc2ccc3c(c2)cc(C)n3C)cc1 | -7.83% (inactive)

Test system: HEK293T viability, ATP luminescence, 72 h
Assay: as above
Conditions: not given

Row | SMILES | AC50 [µM]
14 | O=C(c1c(F)cccc1F)N(Cc1ccccc1)Cc1ccccc1 | 50
